Data taken from paper PMC4155405 (Nature communications, 2014).

Key:
MDCK cells = conditions: cited from earlier work
Wuhan95 virus = format: cell-based
Jurkat cells = conditions: cited from earlier work

| Compound | cytotoxicity in MDCK cells (MDCK cells) | reversal of ribavirin inhibition of Wuhan95 replication by guanosine (Wuhan95 virus) | ATP relative to un-treated control cells (Jurkat cells) | GTP relative to un-treated control cells (Jurkat cells) |
| --- | --- | --- | --- | --- |
| NC(=O)c1nc(F)c[nH]c1=O [favipiravir] | No cytotoxicity |  |  |  |
| Nc1nc2c(ncn2[C@@H]2O[C@H](CO)[C@@H](O)[C@H]2O)c(=O)[nH]1 [guanosine] |  | can restore Wuhan95 replication | 40% | 600% |
